Biological target: Nav 1.7 (Homo sapiens (Human), UniProt Q15858)
Assay: in-vitro Nav 1.7 PX (IC50)
Assay type: cell-based
Details: not given

Nav 1.7, sequence (Q15858 whole entry): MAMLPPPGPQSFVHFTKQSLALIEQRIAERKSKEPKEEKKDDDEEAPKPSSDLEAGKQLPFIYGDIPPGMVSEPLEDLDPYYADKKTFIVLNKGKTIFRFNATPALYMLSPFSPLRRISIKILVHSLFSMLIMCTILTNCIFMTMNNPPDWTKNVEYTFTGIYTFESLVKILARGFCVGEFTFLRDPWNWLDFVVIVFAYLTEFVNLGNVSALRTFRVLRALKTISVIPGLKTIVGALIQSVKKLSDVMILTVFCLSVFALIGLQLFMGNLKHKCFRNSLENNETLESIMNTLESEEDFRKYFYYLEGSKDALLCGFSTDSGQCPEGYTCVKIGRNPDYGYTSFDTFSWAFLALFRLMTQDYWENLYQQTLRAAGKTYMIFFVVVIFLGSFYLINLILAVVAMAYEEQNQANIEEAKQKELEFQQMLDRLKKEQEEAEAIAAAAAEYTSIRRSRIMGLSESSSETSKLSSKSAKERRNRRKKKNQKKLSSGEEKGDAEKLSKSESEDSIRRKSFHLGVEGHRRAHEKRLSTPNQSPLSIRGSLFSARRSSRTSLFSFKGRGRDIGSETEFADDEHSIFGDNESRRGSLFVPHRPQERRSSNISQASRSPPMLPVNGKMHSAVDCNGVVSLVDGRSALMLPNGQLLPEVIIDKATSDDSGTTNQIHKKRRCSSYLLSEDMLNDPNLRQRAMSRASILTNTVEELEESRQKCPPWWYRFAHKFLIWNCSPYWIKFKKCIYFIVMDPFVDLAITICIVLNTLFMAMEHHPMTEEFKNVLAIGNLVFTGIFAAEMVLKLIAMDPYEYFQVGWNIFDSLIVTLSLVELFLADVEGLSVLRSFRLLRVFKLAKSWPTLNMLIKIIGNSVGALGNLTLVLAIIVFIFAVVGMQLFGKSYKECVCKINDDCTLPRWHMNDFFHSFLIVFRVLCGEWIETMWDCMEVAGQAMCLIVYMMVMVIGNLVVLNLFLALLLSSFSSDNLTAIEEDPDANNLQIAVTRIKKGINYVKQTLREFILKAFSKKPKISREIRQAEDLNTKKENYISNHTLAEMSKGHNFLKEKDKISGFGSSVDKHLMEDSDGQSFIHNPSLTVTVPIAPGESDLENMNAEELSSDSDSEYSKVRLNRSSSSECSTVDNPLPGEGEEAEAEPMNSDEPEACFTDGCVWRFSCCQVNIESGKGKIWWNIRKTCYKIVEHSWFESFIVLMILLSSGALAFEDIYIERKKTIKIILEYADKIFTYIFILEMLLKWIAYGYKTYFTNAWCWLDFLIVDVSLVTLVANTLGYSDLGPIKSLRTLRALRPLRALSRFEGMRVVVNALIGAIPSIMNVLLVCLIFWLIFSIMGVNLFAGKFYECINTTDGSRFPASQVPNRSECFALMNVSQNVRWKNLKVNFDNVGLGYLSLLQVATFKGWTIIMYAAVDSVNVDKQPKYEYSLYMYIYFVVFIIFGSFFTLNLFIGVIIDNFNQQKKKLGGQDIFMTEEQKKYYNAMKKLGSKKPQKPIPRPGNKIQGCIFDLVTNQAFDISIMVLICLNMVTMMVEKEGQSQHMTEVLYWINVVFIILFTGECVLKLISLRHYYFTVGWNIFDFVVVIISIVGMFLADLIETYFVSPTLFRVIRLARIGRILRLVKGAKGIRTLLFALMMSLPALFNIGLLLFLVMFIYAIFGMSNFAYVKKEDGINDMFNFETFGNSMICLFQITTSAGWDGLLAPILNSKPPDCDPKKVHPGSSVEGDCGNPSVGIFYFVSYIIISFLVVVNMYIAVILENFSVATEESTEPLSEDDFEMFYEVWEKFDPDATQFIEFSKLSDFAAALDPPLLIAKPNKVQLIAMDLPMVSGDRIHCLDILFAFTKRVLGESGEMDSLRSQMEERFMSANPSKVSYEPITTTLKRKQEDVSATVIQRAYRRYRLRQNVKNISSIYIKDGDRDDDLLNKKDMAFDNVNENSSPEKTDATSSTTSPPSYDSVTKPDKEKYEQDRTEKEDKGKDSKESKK

SMILES	IC50
COc1cc(-c2cc(F)cc(Cl)c2)c(F)cc1-n1c(=O)ccc2cc(S(=O)(=O)Nc3ncccn3)ccc21 (atropisomer, axis not shown; (P)) [Example 541, (P)-1-(3′-chloro-2,5′-difluoro-5-methoxy-4-biphenylyl)-2-oxo-N-2-pyrimidinyl-1,2-dihydro-6-quinolinesulfonamide]	18 nM
CCOc1cc(-c2cccc(F)c2)c(F)cc1-n1c(=O)ccc2cc(S(=O)(=O)Nc3ccon3)ccc21 (atropisomer, axis not shown; (M)) [Example 389, (M)-1-(5-ethoxy-2,3′-difluoro-[1,1′-biphenyl]-4-yl)-N-(isoxazol-3-yl)-2-oxo-1,2-dihydroquinoline-6-sulfonamide]	239 nM

Results, then the compound that gave them:

IC50	SMILES
3360 nM	COc1cc(Br)c(F)cc1-n1c(=O)ccc2cc(S(=O)(=O)Nc3cc(OCC4CCC4)ncn3)ccc21 (atropisomer, axis not shown; (P)) [Example 1184, (P)-1-(4-bromo-5-fluoro-2-methoxyphenyl)-N-(6-(cyclobutylmethoxy)-4-pyrimidinyl)-2-oxo-1,2-dihydro-6-quinolinesulfonamide]
299 nM	COc1ccc(-c2cc(F)cnc2OC)cc1-n1c(=O)ccc2cc(S(=O)(=O)Nc3ccon3)ccc21 [Example 488, 1-(5-(5-fluoro-2-methoxy-3-pyridinyl)-2-methoxyphenyl)-N-3-isoxazolyl-2-oxo-1,2-dihydro-6-quinolinesulfonamide]

Same assay, conditions: in-vitro Nav 1.7 PX data

SMILES	IC50
COc1cc(-c2ccccc2Cl)c(F)cc1-n1c(=O)ccc2cc(S(=O)(=O)Nc3ccon3)ccc21 [Example 952, 1-(2′-chloro-2-fluoro-5-methoxy-4-biphenylyl)-N-3-isoxazolyl-2-oxo-1,2-dihydro-6-quinolinesulfonamide]	62 nM
COc1ccc(-c2cccc(Cl)c2C)cc1-n1c(=O)ccc2cc(S(=O)(=O)Nc3ccon3)ccc21 [Example 895, 1-(3′-chloro-4-methoxy-2′-methyl-3-biphenylyl)-N-3-isoxazolyl-2-oxo-1,2-dihydro-6-quinolinesulfonamide]	1840 nM
COc1cc(-c2cccc(OC(C)C)c2)c(F)cc1-n1c(=O)ccc2cc(S(=O)(=O)Nc3ccon3)ccc21 [Example 823, 1-(2-fluoro-5-methoxy-3′-(1-methylethoxy)-4-biphenylyl)-N-3-isoxazolyl-2-oxo-1,2-dihydro-6-quinolinesulfonamide]	25 nM
COc1cc(-c2cccc(C(F)(F)F)n2)c(F)cc1-n1c(=O)ccc2cc(S(=O)(=O)Nc3ccon3)ccc21 [Example 794, 1-(5-fluoro-2-methoxy-4-(6-(trifluoromethyl)-2-pyridinyl)phenyl)-N-3-isoxazolyl-2-oxo-1,2-dihydro-6-quinolinesulfonamide]	96 nM
COc1ccc(-c2cc(F)cc(Cl)c2)cc1-n1c(=O)ccc2cc(S(=O)(=O)Nc3ccon3)ccc21 [Example 858, 1-(3′-chloro-5′-fluoro-4-methoxy-3-biphenylyl)-N-3-isoxazolyl-2-oxo-1,2-dihydro-6-quinolinesulfonamide]	25 nM
COc1cc(-c2cccc(OC)c2Cl)c(F)cc1-n1c(=O)ccc2cc(S(=O)(=O)Nc3ccon3)ccc21 [Example 731, 1-(2′-chloro-2-fluoro-3′,5-dimethoxy-4-biphenylyl)-N-3-isoxazolyl-2-oxo-1,2-dihydro-6-quinolinesulfonamide]	142 nM
COc1ccc(-c2ccccc2Cl)cc1-n1c(=O)ccc2cc(S(=O)(=O)Nc3ccon3)ccc21 [Example 842, 1-(2′-chloro-4-methoxy-3-biphenylyl)-N-3-isoxazolyl-2-oxo-1,2-dihydro-6-quinolinesulfonamide]	72 nM
COc1ccc(-c2cc(F)cc(Cl)c2)cc1-n1c(=O)ccc2cc(S(=O)(=O)Nc3cccnn3)ccc21 [Example 902, 1-(3′-chloro-5′-fluoro-4-methoxy-3-biphenylyl)-2-oxo-N-3-pyridazinyl-1,2-dihydro-6-quinolinesulfonamide]	77 nM
COc1nc(-c2cc(F)cc(Cl)c2)c(Cl)cc1-n1c(=O)ccc2cc(S(=O)(=O)Nc3ccon3)ccc21 [Example 1070, 1-(5-chloro-6-(3-chloro-5-fluorophenyl)-2-methoxy-3-pyridinyl)-N-3-isoxazolyl-2-oxo-1,2-dihydro-6-quinolinesulfonamide]	12 nM
COc1cc(-c2ccc(Cl)c(C)c2)ccc1-n1c(=O)ccc2cc(S(=O)(=O)Nc3cnccn3)ccc21 [Example 659, 1-(4′-chloro-3-methoxy-3′-methyl-4-biphenylyl)-2-oxo-N-2-pyrazinyl-1,2-dihydro-6-quinolinesulfonamide]	35 nM

Further lines, results first:

IC50	SMILES
41 nM	COc1cc(-c2cc(F)cc(C(F)(F)F)c2)ccc1-n1c(=O)ccc2cc(S(=O)(=O)Nc3cc(C)ncn3)ccc21 [Example 1101, 1-(3′-fluoro-3-methoxy-5′-(trifluoromethyl)-4-biphenylyl)-N-(6-methyl-4-pyrimidinyl)-2-oxo-1,2-dihydro-6-quinolinesulfonamide]
8100 nM	COc1ccc(C2CCOCC2)cc1-n1c(=O)ccc2cc(S(=O)(=O)Nc3ccon3)ccc21 [Example 620, N-3-isoxazolyl-1-(2-methoxy-5-(tetrahydro-2H-pyran-4-yl)phenyl)-2-oxo-1,2-dihydro-6-quinolinesulfonamide]
122 nM	COc1cc(-c2ccc3c(c2)OCC3)ccc1-n1c(=O)ccc2cc(S(=O)(=O)Nc3ccon3)ccc21 [Example 809, 1-(4-(2,3-dihydro-1-benzofuran-6-yl)-2-methoxyphenyl)-N-3-isoxazolyl-2-oxo-1,2-dihydro-6-quinolinesulfonamide]
120 nM	COc1ccc(-c2ccccc2F)cc1-n1c(=O)ccc2cc(S(=O)(=O)Nc3ccon3)ccc21 [Example 836, 1-(2′-fluoro-4-methoxy-3-biphenylyl)-N-3-isoxazolyl-2-oxo-1,2-dihydro-6-quinolinesulfonamide]
14 nM	COc1cc(F)cc(-c2cc(OC)c(-n3c(=O)ccc4cc(S(=O)(=O)Nc5ccon5)ccc43)cc2F)c1 [Example 710, 1-(2,3′-difluoro-5,5′-dimethoxy-4-biphenylyl)-N-3-isoxazolyl-2-oxo-1,2-dihydro-6-quinolinesulfonamide]
12 nM	COc1cc(Cl)cc(-c2ccc(-n3c(=O)ccc4cc(S(=O)(=O)Nc5ncccn5)ccc43)c(OC)c2)c1 [Example 923, 1-(3′-chloro-3,5′-dimethoxy-4-biphenylyl)-2-oxo-N-2-pyrimidinyl-1,2-dihydro-6-quinolinesulfonamide]
100 nM	COc1cc(-c2cc(OC)c(-n3c(=O)ccc4cc(S(=O)(=O)Nc5ccon5)ccc43)cc2F)c(Cl)cn1 [Example 759, 1-(4-(5-chloro-2-methoxy-4-pyridinyl)-5-fluoro-2-methoxyphenyl)-N-3-isoxazolyl-2-oxo-1,2-dihydro-6-quinolinesulfonamide]
52 nM	COc1cc(-c2ccc(Cl)cc2)ccc1-n1c(=O)ccc2cc(S(=O)(=O)Nc3ccnc(C)n3)ccc21 [Example 768, 1-(4′-chloro-3-methoxy-4-biphenylyl)-N-(2-methyl-4-pyrimidinyl)-2-oxo-1,2-dihydro-6-quinolinesulfonamide]
1230 nM	COc1cncc(-c2cc(OC)c(-n3c(=O)ccc4cc(S(=O)(=O)Nc5ccon5)ccc43)cc2F)c1 [Example 738, 1-(5-fluoro-2-methoxy-4-(5-methoxy-3-pyridinyl)phenyl)-N-3-isoxazolyl-2-oxo-1,2-dihydro-6-quinolinesulfonamide]
48 nM	COc1cc(C#CC2CCCC2)c(F)cc1-n1c(=O)ccc2cc(S(=O)(=O)Nc3ncco3)ccc21 [Example 1136, 1-(4-(cyclopentylethynyl)-5-fluoro-2-methoxyphenyl)-N-1,3-oxazol-2-yl-2-oxo-1,2-dihydro-6-quinolinesulfonamide]

Same assay, conditions: in-vitro Nav 1.7 PX data (PatchXpress)

IC50	SMILES
10 nM	COc1cc(-c2cc(Cl)ccc2F)ccc1-n1c(=O)ccc2cc(S(=O)(=O)Nc3ccon3)ccc21 [Example 1034, 1-(5′-chloro-2′-fluoro-3-methoxy-4-biphenylyl)-N-3-isoxazolyl-2-oxo-1,2-dihydro-6-quinolinesulfonamide]

Same assay, conditions: in-vitro Nav 1.7 PX data, Table 4

IC50	SMILES
12 nM	COc1cc(-c2cnc(OC)c(Cl)c2)c(F)cc1-n1c(=O)ccc2cc(S(=O)(=O)Nc3cccc(F)n3)ccc21 (atropisomer, axis not shown; (P)) [Example 1162, (P)-1-(4-(5-chloro-6-methoxy-3-pyridinyl)-5-fluoro-2-methoxyphenyl)-N-(6-fluoro-2-pyridinyl)-2-oxo-1,2-dihydro-6-quinolinesulfonamide]

Same assay, conditions: in-vitro PatchXpress (PX)

SMILES	IC50
COc1cc(-c2cccc(C#N)c2)c(F)cc1-n1c(=O)ccc2cc(S(=O)(=O)Nc3ccon3)ccc21 (atropisomer, axis not shown; (M)) [Example 499, (M)-1-(3′-cyano-2-fluoro-5-methoxy-4-biphenylyl)-N-3-isoxazolyl-2-oxo-1,2-dihydro-6-quinolinesulfonamide]	24800 nM
COc1cc(-c2cc(F)c(F)cc2F)c(F)cc1-n1c(=O)ccc2cc(S(=O)(=O)Nc3ccon3)ccc21 (atropisomer, axis not shown; (P)) [Example 516, (P)—N-3-isoxazolyl-2-oxo-1-(2,2′,4′,5′-tetrafluoro-5-methoxy-4-biphenylyl)-1,2-dihydro-6-quinolinesulfonamide]	> 10000 nM

Next, values leading:

IC50	SMILES
29 nM	COc1cc(-c2ccc(Cl)c(C)c2)ccc1-n1c(=O)ccc2cc(S(=O)(=O)Nc3cccnn3)ccc21 (atropisomer, axis not shown; (M)) [Example 372, (M)-1-(4′-chloro-3-methoxy-3′-methyl-4-biphenylyl)-2-oxo-N-3-pyridazinyl-1,2-dihydro-6-quinolinesulfonamide]
168 nM	COc1nc(-c2cccc(F)c2)c(Cl)cc1-n1c(=O)ccc2cc(S(=O)(=O)Nc3ccon3)ccc21 [Example 341, 1-(5-chloro-6-(3-fluorophenyl)-2-methoxypyridin-3-yl)-N-(isoxazol-3-yl)-2-oxo-1,2-dihydroquinoline-6-sulfonamide]
5160 nM	COc1cc(-c2cc(F)cc(F)c2F)c(F)cc1-n1c(=O)ccc2cc(S(=O)(=O)Nc3ccon3)ccc21 (atropisomer, axis not shown; (M)) [Example 515, (M)-N-3-isoxazolyl-2-oxo-1-(2,2′,3′,5′-tetrafluoro-5-methoxy-4-biphenylyl)-1,2-dihydro-6-quinolinesulfonamide]

From patent US9212182B2, “Bicyclic sulfonamide compounds as sodium channel inhibitors” (AMGEN INC., priority 2013, dated 2015)
